Measurements as given in patent publication US9084793B2, “Methods for treating Alzheimer's disease by administering certain synthetic compounds” (BEIJING JOEKAI BIOTECHNOLOGY LLC, priority 2011, dated 2015).
“Also recorded” adds a separate entry of the source.

Experiments:
Aβ42 transgenic flies = test: Pavlovian olfactory associative immediate memory in Aβ42 transgenic flies; assay type: in vivo, Drosophila; settings: Aβ42 transgenic male flies, 7-day drug feeding, 50 μg/ml, tested day 10 after eclosion
Procedure: Behavioral screening was performed with 2000 synthetic compounds (purchased from TimTec LLC, USA) with structures that are presumably targeted to protein kinase activities (FIG. 1A). Only male flies were selected for 7-day drug treatment and then subjected to behavioral assay at day 10 after eclosion. […] Among them, 9 were tested in double transgenic mice and compounds were indicated to have positive results after 2 months of treatment (6- to 8-month-old) (FIG. 1A-G).

[1] = target: T1, human EGFR expressed in COS-7 cells (Homo sapiens, UniProt P00533); test: Oligomeric Aβ42-induced phosphorylation of EGFR in COS-7 cells transfected with EGFRwt plasmid (Western blot); assay type: cell-based; settings: 10 μg/ml oligomeric Aβ42, COS-7 cells transfected with EGFRwt plasmid
T1 construct: expressed in transfected cells; host or cells: COS-7
Procedure: (§1) COS-7 cells were cultured in normal Dulbecco's Modified Eagle Medium (D-MEM) containing 10% fetal bovine serum (Invitrogen) at 37° C. in 5% CO2. Transfection of the cells with an EGFR^WT plasmid was performed following the Lipofectamine 2000 manuals (Invitrogen). After 48 h, cells were washed with fresh medium once and incubated with 10 or 25 μg/ml Aβ42 oligomers for 15 min at 37° C. in 5% CO2. 0.5 μg/ml human EGF (Sigma) was used as a positive control. Cells were then washed with PBS for 3 times and collected.
The preparation procedure was described previously (Dahlgren K, et al., J Biol Chem. 277:32046-53, 2002). Synthetic and recombinant wild type Aβ42 (AnaSpec, Inc.) was initially dissolved to 1 mM in hexafluoroisopropanol (Sigma).
Hexafluoroisopropanol was removed under vacuum in a Speed Vac, and the peptide film was stored at −20° C. For oligomer preparation, the peptide was first resuspended in DMSO to a concentration of 12.5 mg/ml and then diluted with DMEM/F-12 (phenol red-free, Invitrogen) to a final concentration of 500 μg/ml and incubated at 4° C. for 24 h.
(§2) Whole fly head or cells lysates were prepared using a RIPA buffer containing 0.3% SDS, 50 mM Tris-HCl, pH 7.4, 0.5% NP-40, 1% sodium deoxycholate, 150 mM NaCl, 5 mM EDTA, 1 tablet per 50 ml complete protease inhibitor cocktail (Roche Diagnostics). Lysates were diluted in an SDS sample buffer and separated on 10-20% Tris-Tricine gels (Invitrogen), and transferred to nitrocellulose membranes (Invitrogen). The membranes were boiled in PBS for 3 min, blocked with 5% non-fat dry milk and blotted with a first antibody. First antibodies used included mouse anti-Aβ42 (6E10, Covance Research Products), mouse anti-dEGFR (Abcam), rabbit anti-hEGFR (Cell Signaling), mouse anti-hEGFR-p (Cell Signaling) and rabbit anti-Actin (Sigma). Data were analyzed with the ImageJ software (National Institutes of Health).
Behavioral screening was performed with 2000 synthetic compounds (purchased from TimTec LLC, USA) with structures that are presumably targeted to protein kinase activities (FIG. 1A). […]

[2] = target: T1, human EGFR expressed in COS-7 cells; test: Normal p-EGFR level in EGFRwt-expressing COS-7 cells without oligomeric Aβ42 (Western blot); assay type: cell-based; settings: 100 μg/ml compound, EGFRwt-expressing COS-7 cells without oligomeric Aβ42 peptides
Procedure: FIG. 2. […] 100 μg/ml JKF-006, JKF-011 and JKF-027 were used to treat EGFR^wt-expressing COS-7 cells without oligomeric Aβ42 peptides. […] N=3-4.
as §1, §2

[3] = system: double transgenic mice (APPswe.PSEN1dE9); test: Morris water maze in double transgenic AD-model mice; assay type: in vivo, mouse; settings: two-month treatment (6- to 8-month-old), lavage once daily

Row | Molecule | Rescue/prevention of Aβ42-induced memory loss (performance index) (Aβ42 transgenic flies) | Effect on oligomeric Aβ42-induced increase of p-EGFR activity [1] | Effect on normal (endogenous) p-EGFR level [2] | Rescue of Aβ-induced memory loss (Morris water maze) ([3]; 55 mg/kg/day) | Rescue of Aβ-induced memory loss (Morris water maze) ([3]; 58 mg/kg/day) | Rescue of Aβ-induced memory loss (Morris water maze) ([3]; 14 mg/kg/day)
1 | 2-Propenamide, 2-cyano-N-[2-(1H- indol-3-yl)ethyl]-3-[5- (4-morpholinyl)-2- furanyl]- [JKF-027] | effective in rescuing memory loss | capable of inhibiting induced p-EGFR activity; also recorded: significantly inhibit | None of the compounds changed the p-EGFR level; also recorded: incapable of affecting the endogenous p-EGFR level | Rescue of Aβ-induced memory loss; also recorded: effective results in rescuing the memory loss |  | 
2 | N#C/C(=C/c1ccc(-c2cc(C(=O)O)ccc2Cl)o1)C(=O)Nc1ccc(F)cc1 [JKF-006, Benzoic acid, 4-chloro-3-[5-[2-cyano-3-[(4-fluorophenyl)amino]-3-oxo-1-propen-1-yl]-2-furanyl]-] | effective in rescuing memory loss | capable of inhibiting induced p-EGFR activity; also recorded: significantly inhibit | None of the compounds changed the p-EGFR level; also recorded: incapable of affecting the endogenous p-EGFR level |  | Rescue of Aβ-induced memory loss; also recorded: effective results in rescuing the memory loss | 
3 | O=C1CNCCN1 [JKF-011, Piperazin-2-one] | effective in rescuing memory loss | capable of inhibiting induced p-EGFR activity; also recorded: significantly inhibit | None of the compounds changed the p-EGFR level; also recorded: incapable of affecting the endogenous p-EGFR level |  |  | Rescue of Aβ-induced memory loss; also recorded: effective results in rescuing the memory loss
